This note sets out measurements from patent US7781591B2, “Substituted 3-cyanopyridines as protein kinase inhibitors” (Wyeth LLC, priority 2006, dated 2010).

Format in all cases: biochemical
Test [1] addresses T1, purified recombinant full length PKC theta (Panvera, P2996) (Homo sapiens, UniProt Q04759).
T1 construct: purified recombinant full length PKC theta (Panvera, P2996); purchased Panvera P2996
The experiment in a line: Radioactive kinase assay for inhibition of full length (FL) PKCθ. The conditions noted are these: average value. As to the method: This assay is based on the phosphorylation of a biotinylated substrate by a kinase utilizing radiolabeled ATP (ATP γ P33). The substrate was a biotinylated peptide with a sequence of biotin-[…]-C(O)NH2. […] The assay buffer was composed of 100 mM Hepes, pH7.5, 2 mM MgCl2, 20 mM β-glycerophosphate and 0.008% TritonX 100. A reaction mixture of ATP, ATP γ P33 (PerkinElmer), DTT, and the enzyme was prepared in the assay buffer and added to a 96-well polypropylene plate. The compound (diluted in DMSO in a separate 96-well polypropylene plate) was added to the reaction mixture and incubated at room temperature. Following the incubation, the peptide substrate was added to the reaction mixture to initiate the enzymatic reaction. The reaction was terminated with the addition of a stop solution (100 mM EDTA, 0.2% TritonX100, and 20 mM NaHPO4) and transferred from the assay plate to a washed streptavidin-coated 96-well scintiplate (PerkinElmer). […] Counts were recorded for each well as corrected counts per minute (CCPM). The counts were considered corrected because they were adjusted according to a P33 normalization protocol, which corrects for efficiency and background differences between the instrument detectors (software version 4.40.01).
A Radioactive Kinase Assay for Inhibition of Full Length (FL) PKCθ Inhibitors
This assay differs from what was described above in that the enzyme used was purified recombinant full length PKC theta (Panvera, P2996).

Test [2] addresses T2, human PKCθ full length enzyme (Homo sapiens, UniProt Q04759).
T2 construct: human PKCθ full length enzyme (Panvera Cat# P2996); purchased Panvera P2996
The experiment in a line: PKCθ IMAP assay (fluorescence polarization). The conditions noted are these: human PKCθ full length enzyme, IMAP; average value; read-out: IC50 PKCθ IMAP.

Test [3] deals with T3, purified recombinant active kinase domain of full length PKC theta (amino acids 362-706) (Homo sapiens, UniProt Q04759).
T3 construct: active kinase domain of full length PKC theta (amino acids 362-706)
T3 sequence (Q04759 362-706): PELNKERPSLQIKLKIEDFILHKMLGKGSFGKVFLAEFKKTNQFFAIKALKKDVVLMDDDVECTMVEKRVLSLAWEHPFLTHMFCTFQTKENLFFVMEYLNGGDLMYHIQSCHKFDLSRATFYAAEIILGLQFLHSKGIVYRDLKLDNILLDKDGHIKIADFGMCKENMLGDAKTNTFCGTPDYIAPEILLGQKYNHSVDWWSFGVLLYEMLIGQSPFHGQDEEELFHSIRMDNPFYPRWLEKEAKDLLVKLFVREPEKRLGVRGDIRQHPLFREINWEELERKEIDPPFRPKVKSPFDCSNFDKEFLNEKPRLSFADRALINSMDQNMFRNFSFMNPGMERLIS
Description: Radioactive kinase assay for inhibition of the active kinase domain (KD) of PKCθ. The conditions noted are these: active kinase domain of PKC theta (amino acids 362-706), average value, read-out: IC50 PKCθKD. As to the method:
A Radioactive Kinase Assay for Inhibition of the Active Kinase Domain (KD) of PKCθ
This assay is based on the phosphorylation of a biotinylated substrate by a kinase utilizing radiolabeled ATP (ATP γ P33). The substrate was a biotinylated peptide with a sequence of biotin-[…]-C(O)NH2. The enzyme was purified recombinant active kinase domain of full length PKC theta (amino acids 362-706). The assay buffer was composed of 100 mM Hepes, pH7.5, 2 mM MgCl2, 20 mM β-glycerophosphate and 0.008% TritonX 100. A reaction mixture of ATP, ATP γ P33 (PerkinElmer), DTT, and the enzyme was prepared in the assay buffer and added to a 96-well polypropylene plate. The compound (diluted in DMSO in a separate 96-well polypropylene plate) was added to the reaction mixture and incubated at room temperature. Following the incubation, the peptide substrate was added to the reaction mixture to initiate the enzymatic reaction. The reaction was terminated with the addition of a stop solution (100 mM EDTA, 0.2% TritonX100, and 20 mM NaHPO4) and transferred from the assay plate to a washed streptavidin-coated 96-well scintiplate (PerkinElmer). The scintiplate was incubated at room temperature, washed in PBS with 0.1% TritonX 100, and counted in the 1450 Microbeta Trilux (Wallac, Version 2.60). Counts were recorded for each well as corrected counts per minute (CCPM). The counts were considered corrected because they were adjusted according to a P33 normalization protocol, which corrects for efficiency and background differences between the instrument detectors (software version 4.40.01).

T2 sequence (Q04759 whole entry): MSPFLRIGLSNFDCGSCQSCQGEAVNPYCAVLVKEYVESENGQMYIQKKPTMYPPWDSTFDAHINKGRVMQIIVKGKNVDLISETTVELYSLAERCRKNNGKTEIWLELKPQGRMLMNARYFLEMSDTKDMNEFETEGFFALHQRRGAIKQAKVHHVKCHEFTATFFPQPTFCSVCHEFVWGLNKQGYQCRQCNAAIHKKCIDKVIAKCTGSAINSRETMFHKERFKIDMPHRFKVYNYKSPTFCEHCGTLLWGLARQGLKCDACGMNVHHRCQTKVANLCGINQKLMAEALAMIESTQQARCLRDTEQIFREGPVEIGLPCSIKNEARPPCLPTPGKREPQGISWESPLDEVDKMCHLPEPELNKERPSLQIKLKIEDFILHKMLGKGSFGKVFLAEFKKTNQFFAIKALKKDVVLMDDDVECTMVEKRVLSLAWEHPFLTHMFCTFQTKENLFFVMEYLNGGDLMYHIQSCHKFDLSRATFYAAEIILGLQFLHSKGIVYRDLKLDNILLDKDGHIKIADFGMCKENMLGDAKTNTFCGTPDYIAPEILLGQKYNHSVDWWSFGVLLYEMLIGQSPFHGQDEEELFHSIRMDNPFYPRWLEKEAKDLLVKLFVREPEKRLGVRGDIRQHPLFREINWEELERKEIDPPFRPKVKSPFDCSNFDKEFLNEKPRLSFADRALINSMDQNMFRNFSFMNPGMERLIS
T1 sequence (Q04759 whole entry): as above

A word on the IC50: it is the concentration that inhibits the measured activity by half. As for `COc1ccc(-c2cncc(C#N)c2Nc2ccc3[nH]ccc3c2)cc1OC` [Compound 101, 5-(3,4-dimethoxyphenyl)-4-(1H-indol-5-ylamino)nicotinonitrile], the IC50 is 0.083 µM in test [1], 0.14 µM in test [2] and 0.14 µM in test [3].
With `COc1ccc(-c2cncc(C#N)c2Nc2cccc3nsnc23)cc1OC` [Compound 102, 4-(2,1,3-benzothiadiazol-4-ylamino)-5-(3,4-dimethoxyphenyl)nicotinonitrile], in test [3], the IC50 is 0.96 µM.
On the same count and under the same terms, then `COc1ccc(-c2cncc(C#N)c2Nc2cccc3cnccc23)cc1OC` [Compound 103, 5-(3,4-dimethoxyphenyl)-4-(isoquinolin-5-ylamino)nicotinonitrile], with 5.68 µM; and `COc1ccc(-c2cncc(C#N)c2Nc2cccc3ncccc23)cc1OC` [Compound 104, 5-(3,4-dimethoxyphenyl)-4-(quinolin-5-ylamino)nicotinonitrile], with 6.56 µM; and `COc1ccc(-c2cncc(C#N)c2Nc2cccc3c2CCCC3)cc1OC` [Compound 105, 5-(3,4-dimethoxyphenyl)-4-(5,6,7,8-tetrahydronaphthalen-1-ylamino)nicotinonitrile], with 2.66 µM.
Same read-out and setting: as for `COc1ccc(-c2cncc(C#N)c2Nc2ccc3c(c2)OCCO3)cc1OC` [Compound 106, 4-(2,3-dihydro-1,4-benzodioxin-6-ylamino)-5-(3,4-dimethoxyphenyl)nicotinonitrile], the figure is 11.4 µM.
Take `COc1ccc(-c2cncc(C#N)c2Nc2ccc3cc[nH]c3c2)cc1OC` [Compound 108, 5-(3,4-dimethoxyphenyl)-4-(1H-indol-6-ylamino)nicotinonitrile]: the IC50 in test [1] turned out to be 2.25 µM; in test [2] it was 0.45 µM; in test [3], 1.01 µM.
With `COc1ccc(-c2cncc(C#N)c2Nc2cccc3[nH]ccc23)cc1OC` [Compound 109, 5-(3,4-dimethoxyphenyl)-4-(1H-indol-4-ylamino)nicotinonitrile], the IC50 in test [1] is 0.04 µM; in test [2] it was 0.013 µM; in test [3], 0.15 µM.
As for `CC(=O)Nc1ccc(-c2cccc(-c3cncc(C#N)c3Nc3ccc4[nH]ccc4c3)c2)cc1` [Compound 120, N-{3′-[5-cyano-4-(1H-indol-5-ylamino)pyridin-3-yl]biphenyl-4-yl}acetamide], the IC50 turned out to be 0.12 µM in test [1] and 0.23 µM in test [2].
On the same counts, the results for `N#Cc1cncc(-c2cccc(-c3ccccc3Cl)c2)c1Nc1ccc2[nH]ccc2c1` [Compound 129, 5-(2′-chlorobiphenyl-3-yl)-4-(1H-indol-5-ylamino)nicotinonitrile] are 0.06 µM and 0.24 µM.
Consider `N#Cc1cncc(-c2cccc(-c3cccc(Cl)c3)c2)c1Nc1ccc2[nH]ccc2c1` [Compound 130, 5-(3′-chlorobiphenyl-3-yl)-4-(1H-indol-5-ylamino)nicotinonitrile], for which the concentration for half-maximal inhibition (IC50) in test [1] came out at 0.08 µM; in test [2], 0.16 µM.
In the case of `N#Cc1cncc(-c2cccc(-c3ccc(Cl)cc3)c2)c1Nc1ccc2[nH]ccc2c1` [Compound 131, 5-(4′-chlorobiphenyl-3-yl)-4-(1H-indol-5-ylamino)nicotinonitrile], the IC50 in test [1] was 0.05 µM; in test [2], 0.12 µM.
Taken in the same sequence, the figures for `N#Cc1cncc(-c2cccc(-c3ncccn3)c2)c1Nc1ccc2[nH]ccc2c1` [Compound 138, 4-(1H-indol-5-ylamino)-5-(3-pyrimidin-2-ylphenyl)nicotinonitrile] were 0.1 µM and 0.19 µM.
For `COCCOc1cc(-c2cncc(C#N)c2Nc2ccc3[nH]ccc3c2)ccc1OC` [Compound 154, 4-(1H-indol-5-ylamino)-5-[4-methoxy-3-(2-methoxyethoxy)phenyl]nicotinonitrile], the IC50 was found to be 0.36 µM in test [1] and 0.32 µM in test [2].
On to `COCCOc1ccc(-c2cncc(C#N)c2Nc2cccc3[nH]ccc23)cc1OC` [Compound 159, 4-(1H-indol-4-ylamino)-5-[3-methoxy-4-(2-methoxyethoxy)phenyl]nicotinonitrile], for which the IC50 in test [1] turned out to be 0.06 µM; in test [2] it was 0.016 µM.
With `N#Cc1cncc(-c2cccc(OCCN3CCCC3)c2)c1Nc1cccc2[nH]ccc12` [Compound 169, 4-(1H-indol-4-ylamino)-5-[3-(2-pyrrolidin-1-ylethoxy)phenyl]nicotinonitrile], in test [1], the IC50 turned out to be 0.03 µM.
The same measure, in the same setting: then `N#Cc1cncc(-c2cccc(OCCN3CCOCC3)c2)c1Nc1cccc2[nH]ccc12` [Compound 170, 4-(1H-indol-4-ylamino)-5-[3-(2-morpholin-4-ylethoxy)phenyl]nicotinonitrile], with 0.02 µM; and `N#Cc1cncc(-c2cccc(OCCN3CCCC3)c2)c1Nc1ccc2cc[nH]c2c1` [Compound 172, 4-(1H-indol-6-ylamino)-5-[3-(2-pyrrolidin-1-ylethoxy)phenyl]nicotinonitrile], with 2.59 µM; and `N#Cc1cncc(-c2cccc(OCCN3CCOCC3)c2)c1Nc1ccc2cc[nH]c2c1` [Compound 173, 4-(1H-indol-6-ylamino)-5-[3-(2-morpholin-4-ylethoxy)phenyl]nicotinonitrile], with 2.63 µM.
For the molecule `N#Cc1cncc(-c2cccc(OCCN3CCCC3)c2)c1Nc1ccc2[nH]ccc2c1` [Compound 174, 4-(1H-indol-5-ylamino)-5-[3-(2-pyrrolidin-1-ylethoxy)phenyl]nicotinonitrile], the 50% inhibitory concentration (IC50) in test [1] came out at 0.07 µM.
Same read-out and setting: as for `N#Cc1cncc(-c2cccc(OCCN3CCOCC3)c2)c1Nc1ccc2[nH]ccc2c1` [Compound 175, 4-(1H-indol-5-ylamino)-5-[3-(2-morpholin-4-ylethoxy)phenyl]nicotinonitrile], the figure is 0.1 µM.
The same measure, in the same setting: then `N#Cc1cncc(-c2cccc(OCc3ccccc3)c2)c1Nc1ccc2[nH]ccc2c1` [Compound 194, 5-[3-(benzyloxy)phenyl]-4-(1H-indol-5-ylamino)nicotinonitrile], with 0.05 µM; and `N#Cc1cncc(-c2cccc(-c3ccc(C(=O)NCc4ccccc4)cc3)c2)c1Nc1ccc2[nH]ccc2c1` [Compound 204, N-benzyl-3′-[5-cyano-4-(1H-indol-5-ylamino)pyridin-3-yl]biphenyl-4-carboxamide], with 0.19 µM; and `N#Cc1cncc(-c2cccc(-c3ccc(C(=O)N4CCOCC4)cc3)c2)c1Nc1ccc2[nH]ccc2c1` [Compound 206, 4-(1H-indol-5-ylamino)-5-[4′-(morpholin-4-ylcarbonyl)biphenyl-3-yl]nicotinonitrile], with 1.14 µM.
The same measure, in the same setting: as for `CN1CCN(C(=O)c2ccc(-c3cccc(-c4cncc(C#N)c4Nc4ccc5[nH]ccc5c4)c3)cc2)CC1` [Compound 207, 4-(1H-indol-5-ylamino)-5-{4′-[(4-methylpiperazin-1-yl)carbonyl]biphenyl-3-yl}nicotinonitrile], the figure is 0.53 µM; as for `COc1ccc(-c2cncc(C#N)c2Nc2cc(C)c3[nH]ccc3c2)cc1OC` [Compound 217, 5-(3,4-dimethoxyphenyl)-4-[(7-methyl-1H-indol-5-yl)amino]nicotinonitrile], 0.36 µM; as for `COc1ccc(-c2cncc(C#N)c2Oc2ccc3[nH]ccc3c2)cc1OC` [Compound 220, 5-(3,4-dimethoxyphenyl)-4-(1H-indol-5-yloxy)nicotinonitrile], more than 20 µM.
